US20260206755A1, “COMPOUNDS AND COMPOSITIONS HAVING KNOCK-DOWN OR BLOOD FEED INHIBITION ACTIVITY AGAINST INSECT PESTS” (priority 2017, published 2026)
Read-outs that look alike come from different tables or passages of the source.

System: Anopheles stephensi
Assay: Anopheles stephensi treated well plate contact test: knockdown and mortality
Assay type: in vivo
Settings: for mortality at 0.02 ppm / mortality at 0.2 ppm / mortality at 2 ppm / mortality at 20 ppm / pest or weed control at 0.02 ppm / pest or weed control at 0.2 ppm / pest or weed control at 2 ppm / pest or weed control at 20 ppm / mortality at 200 ppm / pest or weed control at 200 ppm: Anopheles stephensi; for pest or weed control at 0.02 ppm / pest or weed control at 0.2 ppm / pest or weed control at 2 ppm / pest or weed control at 20 ppm / Knock Down, with TFNA-AM / Knock Down, without TFNA-AM / pest or weed control at 200 ppm: knockdown after 1 hour; for pest or weed control at 0.02 ppm / pest or weed control at 0.2 ppm / pest or weed control at 2 ppm / pest or weed control at 20 ppm / pest or weed control at 200 ppm: read-out: Knock Down, without TFNA-AM
Experimental: Examples Anopheles stephensi (Indian Malaria Mosquito)
The individual wells of twelve (12) well tissue culture plates were treated with 200 μl of an ethanol solution containing a test compound of Table 1 or Table 2 at a defined concentration and repeated with also 200 μl of an ethanol solution containing in addition 2 ppm TFNA-AM. Once the deposits were dry, five non-blood fed adult female Anopheles stephensi (between two to five day old) were added to each well, and sustained with a 10% sucrose solution in a cotton wool plug. Assessment of the knockdown after 1 hour, and mortality after 24 and 48 hours was carried out.
In case of multiple tests, the mean value is reported.

[1] = 24 h, read-out: mortality % 24, without TFNA-AM
[2] = 48 h, read-out: mortality % 48, without TFNA-AM
[3] = test compound 0.02 ppm, without TFNA-AM
[4] = test compound 0.2 ppm, without TFNA-AM
[5] = test compound 2 ppm, without TFNA-AM
[6] = test compound 20 ppm, without TFNA-AM
[7] = test compound 0.02 ppm plus 2 ppm TFNA-AM, after 24 hours
[8] = test compound 0.02 ppm plus 2 ppm TFNA-AM, after 48 hours
[9] = test compound 0.02 ppm plus 2 ppm TFNA-AM
[10] = test compound 0.2 ppm plus 2 ppm TFNA-AM, after 24 hours
[11] = test compound 0.2 ppm plus 2 ppm TFNA-AM, after 48 hours
[12] = test compound 0.2 ppm plus 2 ppm TFNA-AM
[13] = test compound 2 ppm plus 2 ppm TFNA-AM, after 24 hours
[14] = test compound 2 ppm plus 2 ppm TFNA-AM, after 48 hours
[15] = test compound 2 ppm plus 2 ppm TFNA-AM
[16] = test compound 20 ppm plus 2 ppm TFNA-AM, after 24 hours
[17] = test compound 20 ppm plus 2 ppm TFNA-AM, after 48 hours
[18] = test compound 20 ppm plus 2 ppm TFNA-AM
[19] = test compound 0.2 ppm, without TFNA-AM, after 24 hours, read-out: mortality % 24, without TFNA-AM
[20] = test compound 0.2 ppm, without TFNA-AM, after 48 hours, read-out: mortality % 48, without TFNA-AM
[21] = test compound 2 ppm, without TFNA-AM, after 24 hours, read-out: mortality % 24, without TFNA-AM
[22] = test compound 2 ppm, without TFNA-AM, after 48 hours, read-out: mortality % 48, without TFNA-AM
[23] = test compound 20 ppm, without TFNA-AM, after 24 hours, read-out: mortality % 24, without TFNA-AM
[24] = test compound 20 ppm, without TFNA-AM, after 48 hours, read-out: mortality % 48, without TFNA-AM
[25] = test compound 0.2 ppm, without TFNA-AM, after 24 hours
[26] = test compound 0.2 ppm, without TFNA-AM, after 48 hours
[27] = test compound 2 ppm, without TFNA-AM, after 24 hours
[28] = test compound 2 ppm, without TFNA-AM, after 48 hours
[29] = test compound 20 ppm, without TFNA-AM, after 24 hours
[30] = test compound 20 ppm, without TFNA-AM, after 48 hours
[31] = test compound 200 ppm plus 2 ppm TFNA-AM, after 24 hours
[32] = test compound 200 ppm plus 2 ppm TFNA-AM, after 48 hours
[33] = test compound 200 ppm plus 2 ppm TFNA-AM
[34] = test compound 200 ppm, without TFNA-AM, after 24 hours
[35] = test compound 200 ppm, without TFNA-AM, after 48 hours
[36] = test compound 200 ppm, without TFNA-AM, adult females
[37] = test compound 200 ppm, without TFNA-AM, after 24 hours, read-out: mortality % 24, without TFNA-AM
[38] = test compound 200 ppm, without TFNA-AM, after 48 hours, read-out: mortality % 48, without TFNA-AM

Molecule	pest or weed control at 0.2 ppm [4] [%]	pest or weed control at 2 ppm [5] [%]	pest or weed control at 20 ppm [6] [%]	mortality % 24, with TFNA-AM [10] [%]	mortality % 48, with TFNA-AM [11] [%]	Knock Down, with TFNA-AM [12] [%]	mortality % 24, with TFNA-AM [13] [%]	mortality % 48, with TFNA-AM [14] [%]	Knock Down, with TFNA-AM [15] [%]	mortality % 24, with TFNA-AM [16] [%]	mortality % 48, with TFNA-AM [17] [%]	Knock Down, with TFNA-AM [18] [%]	mortality at 0.2 ppm [19] [%]	mortality at 0.2 ppm [20] [%]	mortality at 2 ppm [21] [%]	mortality at 2 ppm [22] [%]	mortality at 20 ppm [23] [%]	mortality % 24, with TFNA-AM [31] [%]	mortality % 48, with TFNA-AM [32] [%]	Knock Down, with TFNA-AM [33] [%]	also measured
CCOC(=O)CC(SP(=S)(OC)OC)C(=O)OCC (stereo not drawn) [Malathion]	20	40	40	0	0	100	100	100	100	100	100	100									mortality at 0.02 ppm [1]: 0%; mortality at 0.2 ppm [1]: 0%; mortality at 2 ppm [1]: 100%; mortality at 20 ppm [1]: 100%; mortality at 0.02 ppm [2]: 0%; mortality at 0.2 ppm [2]: 0%; mortality at 2 ppm [2]: 100%; mortality at 20 ppm [2]: 100%; pest or weed control at 0.02 ppm [3]: 20%; mortality % 24, with TFNA-AM [7]: 0%; mortality % 48, with TFNA-AM [8]: 0%; Knock Down, with TFNA-AM [9]: 100%
Cc1c(COC(=O)[C@@H]2[C@H](/C=C(\Cl)C(F)(F)F)C2(C)C)cccc1-c1ccccc1 (racemic) [Bifenthrin]	20	100	100	100	100	100	100	100	100	100	100	100	100	100	100	100	100				mortality at 0.02 ppm (test compound 0.02 ppm, without TFNA-AM, after 24 hours, read-out: mortality % 24, without TFNA-AM): 20%; mortality at 0.02 ppm (test compound 0.02 ppm, without TFNA-AM, after 48 hours, read-out: mortality % 48, without TFNA-AM): 60%; pest or weed control at 0.02 ppm [3]: 20%; mortality at 20 ppm [24]: 100%; mortality % 24, with TFNA-AM [7]: 100%; mortality % 48, with TFNA-AM [8]: 100%; Knock Down, with TFNA-AM [9]: 100%
Emamectin benzoate				30	20	100	60	60	100	100	100	100						100	100	100	mortality % 24, without TFNA-AM [25]: 0%; mortality % 48, without TFNA-AM [26]: 0%; Knock Down, without TFNA-AM [4]: 0%; mortality % 24, without TFNA-AM [27]: 0%; mortality % 48, without TFNA-AM [28]: 10%; Knock Down, without TFNA-AM [5]: 0%; mortality % 24, without TFNA-AM [29]: 40%; mortality % 48, without TFNA-AM [30]: 90%; Knock Down, without TFNA-AM [6]: 0%; mortality % 24, without TFNA-AM [34]: 40%; mortality % 48, without TFNA-AM [35]: 90%; Knock Down, without TFNA-AM [36]: 0%
O=[N+]([O-])c1cc(C(F)(F)F)c(Cl)c([N+](=O)[O-])c1Nc1ncc(C(F)(F)F)cc1Cl [Fluazinam]	0	0	20	30	20	100	30	20	100	100	100	100	0	0	0	0	70	100	100	100	mortality at 20 ppm [24]: 80%; mortality at 200 ppm [37]: 90%; mortality at 200 ppm [38]: 90%; pest or weed control at 200 ppm [36]: 20%
CC(COc1ccc(Oc2ccccc2)cc1)Oc1ccccn1 (stereo not drawn) [Pyriproxyfen]	0	0	0	60	60	100	60	60	100	60	60	100	0	0	0	0	0	80	80	100	mortality at 20 ppm [24]: 0%; mortality at 200 ppm [37]: 0%; mortality at 200 ppm [38]: 0%; pest or weed control at 200 ppm [36]: 0%
CCC(Nc1ncnc(C)c1Cl)c1ccc(OC(F)F)cc1 (stereo not drawn) [Diflumetorim]	0	30	100	20	10	100	90	90	100	100	100	100	0	0	60	60	100	100	100	100	mortality at 20 ppm [24]: 100%; mortality at 200 ppm [37]: 100%; mortality at 200 ppm [38]: 100%; pest or weed control at 200 ppm [36]: 100%
CO/C=C(/C(=O)OC)c1ccccc1COc1cccc(C(F)(F)F)n1 [Picoxystrobin]				30	20	100	80	80	100	100	100	100						100	100	100	mortality % 24, without TFNA-AM [25]: 0%; mortality % 48, without TFNA-AM [26]: 0%; Knock Down, without TFNA-AM [4]: 0%; mortality % 24, without TFNA-AM [27]: 50%; mortality % 48, without TFNA-AM [28]: 0%; Knock Down, without TFNA-AM [5]: 0%; mortality % 24, without TFNA-AM [29]: 90%; mortality % 48, without TFNA-AM [30]: 100%; Knock Down, without TFNA-AM [6]: 30%; mortality % 24, without TFNA-AM [34]: 100%; mortality % 48, without TFNA-AM [35]: 100%; Knock Down, without TFNA-AM [36]: 100%
